“And” between values parts separate entries of the source, which are not always exact repeats. Equal entries are not always repeated. Toxic doses and inconclusive results are not listed. How the source made its calls: active means survival T/C of 150% or more; inactive means T/C below 125% in these data.
System: P388 leukemia ip, CD2F1 mice, survival T/C
Assay: NCI In Vivo Anticancer Drug Screen. Data for tumor model P388 Leukemia (intraperitoneal) in CD2F1 (CDF1) mice
Details: endpoint: median survival time, higher = longer survival
Outline: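 Mice carrying the transplanted tumor received test compound or vehicle. Survival was recorded in each group, and the value is the treated-group measurement divided by that of the vehicle-treated control group.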

[1] = dose: 60.0 mg/kg/injection, schedule: Q01DX005 (ip), vehicle: Klucel (hydroxypropylcellulose) (HPC)
[2] = dose: 120.0 mg/kg/injection, schedule: Q01DX005 (ip), vehicle: Klucel (hydroxypropylcellulose) (HPC)

Measured: T/C

CCC(C)(O)P(=O)(O)O (stereo unspecified)
inactive: dose: 50.0 mg/kg/injection, schedule: Q01DX009 (ip), vehicle: saline 98 % of control | dose: 100.0 mg/kg/injection, schedule: Q01DX009 (ip), vehicle: saline 98 % of control | dose: 200.0 mg/kg/injection, schedule: Q01DX009 (ip), vehicle: saline 95 % of control

COC(=O)C1C(c2ccccc2)C1(C#N)C#N (stereo unspecified)
inactive: [1] 96 % of control | [2] 106 % of control | dose: 240.0 mg/kg/injection, schedule: Q01DX005 (ip), vehicle: Klucel (hydroxypropylcellulose) (HPC) 98 % of control

O=C1OI(OI2OC(=O)c3ccccc32)c2ccccc21
inactive: dose: 15.0 mg/kg/injection, schedule: Q01DX005 (ip), vehicle: Klucel (hydroxypropylcellulose) (HPC) 102 % of control and 116 % of control | dose: 30.0 mg/kg/injection, schedule: Q01DX005 (ip), vehicle: Klucel (hydroxypropylcellulose) (HPC) 104 % of control and 92 % of control | [1] 100 % of control and 101 % of control and 113 % of control | [2] 101 % of control and 113 % of control

CC12OC1C(=O)C1C3C=CC(C3)C1C2=O (stereo unspecified)
inactive: dose: 75.0 mg/kg/injection, schedule: Q04DX002 (ip), vehicle: saline with Tween-80 96 % of control | dose: 150.0 mg/kg/injection, schedule: Q04DX002 (ip), vehicle: saline with Tween-80 96 % of control | dose: 300.0 mg/kg/injection, schedule: Q04DX002 (ip), vehicle: saline with Tween-80 97 % of control

Cc1ccc2nc(NC(=S)SSC(=S)Nc3nc4ccc(C)cc4s3)sc2c1
inactive: dose: 6.25 mg/kg/injection, schedule: Q01DX009 (ip), vehicle: Klucel (hydroxypropylcellulose) (HPC) 107 % of control | dose: 12.5 mg/kg/injection, schedule: Q01DX009 (ip), vehicle: Klucel (hydroxypropylcellulose) (HPC) 108 % of control | dose: 25.0 mg/kg/injection, schedule: Q01DX009 (ip), vehicle: Klucel (hydroxypropylcellulose) (HPC) 94 % of control

COC(=O)C(OC)(OC)C(O)c1ccccc1 (stereo unspecified)
inactive: dose: 60.0 mg/kg/injection, schedule: Q01DX005 (ip), vehicle: saline 100 % of control | dose: 120.0 mg/kg/injection, schedule: Q01DX005 (ip), vehicle: saline 106 % of control | dose: 240.0 mg/kg/injection, schedule: Q01DX005 (ip), vehicle: saline 113 % of control

CCOc1cc2cc(CCO)c(C)cc2cn1
inactive: dose: 6.25 mg/kg/injection, schedule: Q01DX009 (ip), vehicle: distilled water + Tween-80 110 % of control | dose: 12.5 mg/kg/injection, schedule: Q01DX009 (ip), vehicle: distilled water + Tween-80 108 % of control | dose: 25.0 mg/kg/injection, schedule: Q01DX009 (ip), vehicle: distilled water + Tween-80 94 % of control | dose: 50.0 mg/kg/injection, schedule: Q01DX009 (ip), vehicle: distilled water + Tween-80 94 % of control | dose: 100.0 mg/kg/injection, schedule: Q01DX009 (ip), vehicle: distilled water + Tween-80 100 % of control and 90 % of control | dose: 200.0 mg/kg/injection, schedule: Q01DX009 (ip), vehicle: distilled water + Tween-80 95 % of control | dose: 400.0 mg/kg/injection, schedule: Q01DX009 (ip), vehicle: distilled water + Tween-80 104 % of control

CCC1OC(=O)CC(O)C(C)C(OC2OC(C)C(O)C(N(C)C)C2O)C(CC=O)CC(C)C(=O)/C=C/C2(C)OC2C1C (stereo unspecified)
inactive: dose: 9.38 mg/kg/injection, schedule: Q01DX009 (ip), vehicle: Klucel (hydroxypropylcellulose) (HPC) 110 % of control | dose: 9.4 mg/kg/injection, schedule: Q01DX009 (ip), vehicle: Klucel (hydroxypropylcellulose) (HPC) 95 % of control | dose: 18.75 mg/kg/injection, schedule: Q01DX009 (ip), vehicle: Klucel (hydroxypropylcellulose) (HPC) 101 % of control and 119 % of control | dose: 37.5 mg/kg/injection, schedule: Q01DX009 (ip), vehicle: Klucel (hydroxypropylcellulose) (HPC) 103 % of control | dose: 75.0 mg/kg/injection, schedule: Q01DX009 (ip), vehicle: Klucel (hydroxypropylcellulose) (HPC) 101 % of control and 123 % of control | dose: 150.0 mg/kg/injection, schedule: Q01DX009 (ip), vehicle: Klucel (hydroxypropylcellulose) (HPC) 124 % of control

C=CCOCC(O)Cn1cnc2c(N)ncnc21 (stereo unspecified)
inactive: dose: 50.0 mg/kg/injection, schedule: Q01DX005 (ip), vehicle: Klucel (hydroxypropylcellulose) (HPC) 97 % of control | dose: 100.0 mg/kg/injection, schedule: Q01DX005 (ip), vehicle: Klucel (hydroxypropylcellulose) (HPC) 106 % of control | dose: 200.0 mg/kg/injection, schedule: Q01DX005 (ip), vehicle: Klucel (hydroxypropylcellulose) (HPC) 100 % of control

CC1(C(=O)OCc2ccccc2)NCCS1 (stereo unspecified)
inactive: dose: 50.0 mg/kg/injection, schedule: Q01DX009 (ip), vehicle: saline with Tween-80 100 % of control | dose: 100.0 mg/kg/injection, schedule: Q01DX009 (ip), vehicle: saline with Tween-80 96 % of control | dose: 200.0 mg/kg/injection, schedule: Q01DX009 (ip), vehicle: saline with Tween-80 109 % of control

CN1C(C)(C)CC(O)(C#N)CC1(C)C
inactive: dose: 50.0 mg/kg/injection, schedule: Q01DX005 (ip), vehicle: saline 100 % of control | dose: 100.0 mg/kg/injection, schedule: Q01DX005 (ip), vehicle: saline 98 % of control | dose: 200.0 mg/kg/injection, schedule: Q01DX005 (ip), vehicle: saline 103 % of control

Reference: PubChem BioAssay AID330 (DTP/NCI, 2004)
